Publication PMC10046961, “High-Throughput Screening Assay for Detecting Drug-Induced Changes in Synchronized Neuronal Oscillations and Potential Seizure Risk Based on Ca^2+ Fluorescence Measurements in Human Induced Pluripotent Stem Cell (hiPSC)-Derived Neuronal 2D and 3D Cultures” (Cells, 2023)
Where two headings read alike, the source gives them in different places.

Columns and labels:
[1] = Table 1; peak plasma concentration in men, free therapeutic Cmax; ref PharmaPendium; cited from earlier work
[2] = test system: hiPSC-derived neurons co-cultured with human primary astrocytes in 3D; experiment: Ca2+ transient oscillation assay (FDSS), 3D spheroids; assay type: cell-based; conditions: 60 min
In short: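 Fura-2 fluorescence was read twice for 20 min each: a baseline 10 min after 0.04% DMSO, and again 60 min after compound addition at nominal final concentration. The 3D co-cultures (1:1 hiPSC neurons from a donor and human astrocytes, 8000 each) matured 5 weeks in BrainPhys medium after a 1-week differentiation.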

[3] = test system: hiPSC-derived neurons co-cultured with human primary astrocytes in 2D; experiment: Ca2+ transient oscillation assay (FDSS), 2D co-culture; assay type: cell-based; conditions: Homo sapiens, 1 h, 60 min
In short: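 Cultures were 10,000 CW50065 hiPSC excitatory neurons plus 2500 primary human astrocytes per well. Recordings used Cal-520 dye in HBSS/HEPES/glucose at 37 °C, with a 470/540 nm read at 2 Hz. Oscillations were stabilized with 0.04% DMSO, read for 20 min, then read again 60 min after compound addition (final DMSO 0.1%).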

[4] = read-out: Area under the curve - 2D Mean
[5] = read-out: Peak amplitude - 2D Mean
[6] = read-out: Peak-to-peak interval - 2D Mean

CCn1cc(C(=O)O)c(=O)c2cc(F)c(N3CCNCC3)nc21 [Enoxacin]
Free Cmax [1]: 1000 to 4000 nM | Area under the curve - 3D Mean ([2]; 0.37 µM): 115.6 % change from baseline | Peak Number—3D Mean ([2]; 0.37 µM): −16.9 % change from baseline | Peak amplitude - 3D Mean ([2]; 0.37 µM): 106.8 % change from baseline | Peak width - 3D Mean ([2]; 0.37 µM): 3.2 % change from baseline | Peak-to-peak interval - 3D Mean ([2]; 0.37 µM): 30.9 % change from baseline | Area under the curve - 3D Mean ([2]; 1.11 µM): 124.6 % change from baseline | Peak Number—3D Mean ([2]; 1.11 µM): 5.5 % change from baseline | Peak amplitude - 3D Mean ([2]; 1.11 µM): 123.3 % change from baseline | Peak width - 3D Mean ([2]; 1.11 µM): −2.2 % change from baseline | Peak-to-peak interval - 3D Mean ([2]; 1.11 µM): −0.7 % change from baseline | Area under the curve - 3D Mean ([2]; 3.33 µM): 139.4 % change from baseline | Peak Number—3D Mean ([2]; 3.33 µM): 13.2 % change from baseline | Peak amplitude - 3D Mean ([2]; 3.33 µM): 129.6 % change from baseline | Peak width - 3D Mean ([2]; 3.33 µM): 3.0 % change from baseline | Peak-to-peak interval - 3D Mean ([2]; 3.33 µM): −1.3 % change from baseline | Area under the curve - 3D Mean ([2]; 10 µM): 114.6 % change from baseline | Peak Number—3D Mean ([2]; 10 µM): 2.2 % change from baseline | Peak amplitude - 3D Mean ([2]; 10 µM): 116.3 % change from baseline | Peak width - 3D Mean ([2]; 10 µM): −1.1 % change from baseline | Peak-to-peak interval - 3D Mean ([2]; 10 µM): −1.1 % change from baseline | activation at 0.37 µM [3, 4]: 25.5% | activation at 0.37 µM ([3]; read-out: Peak Number—2D Mean): 1.3% | activation at 0.37 µM [3, 5]: 7.8% | activation at 0.37 µM ([3]; read-out: Peak width - 2D Mean): 18.3% | activation at 0.37 µM [3, 6]: 18% | activation at 1.11 µM [3, 4]: 41% | activation at 1.11 µM ([3]; read-out: Peak Number—2D Mean): 2.3% | activation at 1.11 µM [3, 5]: 5.3% | activation at 1.11 µM ([3]; read-out: Peak width - 2D Mean): 45.8% | activation at 1.11 µM [3, 6]: 1.3% | activation at 3.33 µM [3, 4]: 47.3% | activation at 3.33 µM ([3]; read-out: Peak Number—2D Mean): 5.5% | activation at 3.33 µM [3, 5]: 13.5% | activation at 3.33 µM ([3]; read-out: Peak width - 2D Mean): 39% | activation at 3.33 µM [3, 6]: 12.7% | activation at 10 µM [3, 4]: 49.3% | activation at 10 µM ([3]; read-out: Peak Number—2D Mean): 2% | activation at 10 µM [3, 5]: 11.3% | activation at 10 µM ([3]; read-out: Peak width - 2D Mean): 49% | activation at 10 µM [3, 6]: -3%
